Experimental data published in the supplement of paper PMC10307832.

Assays:
Experiment in all cases: relative viability (nuclei count vs DMSO), 5 days (fraction); higher = more cells survive
QS11 + Lapatinib = compound: C1CC2=C(C1)C=C(C=C2)OC3=NC(=C4C(=N3)N(C=N4)CC5=CC=C(C=C5)C6=CC=CC=C6)N[C@@H](CC7=CC=CC=C7)CO [QS11] + CS(=O)(=O)CCNCc1ccc(-c2ccc3ncnc(Nc4ccc(OCc5cccc(F)c5)c(Cl)c4)c3c2)o1 [Lapatinib] (partner 2 µM)
How it was run: (§1)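 Cells from lung cancer lines were seeded into 1536-well plates and, one day later, dosed by pin tool. Treatments were either a single drug or a fixed dose of an anchor drug with five library-drug doses (not always all listed) in √10 steps. After 5 days, nuclei were stained in a one-step fixation (final 0.05% Triton X-100, 1% formaldehyde, 1 ug/ml Hoechst) and counted on 4× images, and relative viability is the treated-to-vehicle nuclei ratio, as the median of duplicate plates.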

AZ628 + Trametinib = compound: CC1=C(C=C(C=C1)NC(=O)C2=CC(=CC=C2)C(C)(C)C#N)NC3=CC4=C(C=C3)N=CN(C4=O)C [AZ628] + CC(=O)Nc1cccc(-n2c(=O)n(C3CC3)c(=O)c3c(Nc4ccc(I)cc4F)n(C)c(=O)c(C)c32)c1 [Trametinib] (partner 0.02 µM)
How it was run: as §1

AZ628 + Lapatinib = compound: CC1=C(C=C(C=C1)NC(=O)C2=CC(=CC=C2)C(C)(C)C#N)NC3=CC4=C(C=C3)N=CN(C4=O)C [AZ628] + CS(=O)(=O)CCNCc1ccc(-c2ccc3ncnc(Nc4ccc(OCc5cccc(F)c5)c(Cl)c4)c3c2)o1 [Lapatinib] (partner 2 µM)
How it was run: as §1

AZ628 + Dasatinib = compound: CC1=C(C=C(C=C1)NC(=O)C2=CC(=CC=C2)C(C)(C)C#N)NC3=CC4=C(C=C3)N=CN(C4=O)C [AZ628] + Cc1nc(Nc2ncc(C(=O)Nc3c(C)cccc3Cl)s2)cc(N2CCN(CCO)CC2)n1 [Dasatinib] (partner 0.075 µM)
How it was run: as §1

Cell Line	relative viability (QS11 + Lapatinib; first compound 0.08 µM)	relative viability (QS11 + Lapatinib; first compound 0.253 µM)	relative viability (QS11 + Lapatinib; first compound 0.8 µM)	relative viability (QS11 + Lapatinib; first compound 2.53 µM)	relative viability (QS11 + Lapatinib; first compound 8 µM)	relative viability (AZ628 + Trametinib; first compound 0.08 µM)	relative viability (AZ628 + Trametinib; first compound 0.253 µM)	relative viability (AZ628 + Trametinib; first compound 0.8 µM)	relative viability (AZ628 + Trametinib; first compound 2.53 µM)	relative viability (AZ628 + Trametinib; first compound 8 µM)	relative viability (AZ628 + Lapatinib; first compound 0.08 µM)	relative viability (AZ628 + Lapatinib; first compound 0.253 µM)	relative viability (AZ628 + Lapatinib; first compound 0.8 µM)	relative viability (AZ628 + Lapatinib; first compound 2.53 µM)	relative viability (AZ628 + Lapatinib; first compound 8 µM)	relative viability (AZ628 + Dasatinib; first compound 0.08 µM)	relative viability (AZ628 + Dasatinib; first compound 0.253 µM)	relative viability (AZ628 + Dasatinib; first compound 0.8 µM)	relative viability (AZ628 + Dasatinib; first compound 2.53 µM)	relative viability (AZ628 + Dasatinib; first compound 8 µM)
HCC-78	0.577	0.876	0.699	0.627	0.847	0.613	0.424	0.377	0.375	0.46	0.81	0.725	0.961	0.703	0.479	0.514	0.338	0.417	0.394	0.367
HCC-366	0.97	0.992	–	0.67	0.246	0.277	0.242	0.204	0.233	0.156	1.1	0.918	0.968	0.87	0.717	0.663	0.653	0.492	0.55	0.406
HCC-827	0.176	0.226	0.158	0.243	0.227	0.352	0.348	0.3	0.342	0.316	0.238	0.172	0.208	0.191	0.191	0.364	0.295	0.296	0.25	0.18
HOP-62	0.95	1.18	0.863	0.892	0.983	0.197	0.155	0.15	0.15	0.188	1.12	0.978	1.01	0.957	0.631	0.501	0.608	0.477	0.478	0.317
IA-LM	1.13	1.02	0.513	0.589	0.596	–	–	–	–	–	0.881	0.831	0.315	0.373	0.2	–	–	–	–	–
LC-2-ad	0.91	1.09	0.627	1.04	0.921	0.731	0.669	0.529	0.601	0.427	0.949	0.867	0.446	0.72	0.474	0.713	0.419	0.396	0.365	0.149
LCLC-103H	–	–	–	–	–	0.58	0.586	0.657	0.565	0.584	–	–	–	–	–	0.559	0.427	0.523	0.399	0.478
LK-2	1.04	1.15	1	0.829	1.3	0.332	0.468	0.251	0.27	0.301	1.06	0.56	0.885	0.799	0.537	0.311	0.288	0.204	0.23	0.212
LOU-NH91	0.742	0.622	–	0.731	0.685	0.795	0.787	0.713	0.726	0.668	0.776	0.738	0.724	0.67	0.626	0.553	0.484	0.541	0.497	0.471
LU99A	0.83	1.17	1.15	0.963	0.637	0.296	0.277	0.245	0.244	0.288	0.973	0.966	1.11	0.943	0.573	0.527	0.625	0.52	0.492	0.242
LXF-289	0.941	0.909	0.757	0.821	0.739	0.603	0.477	0.472	0.525	0.38	0.882	0.884	0.79	0.843	0.58	0.192	0.23	0.279	0.274	0.167
NCI-H23	1.01	0.988	0.871	0.885	1.1	0.178	0.29	0.211	0.191	0.23	1.18	0.958	0.698	0.722	0.528	0.708	0.75	0.44	0.509	0.302
NCI-H322M	0.573	0.642	0.559	0.576	0.628	0.473	0.511	0.489	0.536	0.617	0.674	0.737	0.747	0.646	0.657	0.28	0.261	0.264	0.231	0.268
NCI-H441	–	–	–	–	–	0.405	0.306	0.386	0.283	0.437	–	–	–	–	–	0.643	0.577	0.598	0.567	0.277
NCI-H522	–	–	–	–	–	0.768	0.745	0.678	0.732	0.584	–	–	–	–	–	0.758	0.952	0.732	0.919	0.731
NCI-H1299	1.02	0.933	0.807	0.917	0.712	–	–	–	–	–	1.11	1.2	1.17	1.23	0.945	–	–	–	–	–
NCI-H1563	0.988	0.892	1.12	0.972	0.891	–	–	–	–	–	1.11	0.965	1.07	0.868	0.939	0.477	0.436	0.469	0.487	0.475
NCI-H1623	–	–	–	–	–	–	–	–	–	–	–	–	–	–	–	0.554	0.447	0.301	0.493	0.374
NCI-H1648	–	–	–	–	–	0.404	0.333	0.288	0.337	0.284	–	–	–	–	–	–	–	–	–	–
NCI-H1703	0.986	1.41	1.04	0.974	1.1	–	–	–	–	–	0.763	0.393	0.389	0.246	0.286	–	–	–	–	–
NCI-H2342	–	–	–	–	–	0.839	0.878	0.907	0.752	0.978	–	–	–	–	–	0.319	0.307	0.327	0.306	0.298
SW 900	–	–	–	–	–	0.506	0.663	0.568	0.555	0.309	–	–	–	–	–	1.1	0.466	0.59	0.528	0.547
